Source: patent publication US20230219986A1, “NOVEL AMINOPYRIMIDINE EGFR INHIBITOR” (QILU PHARMACEUTICAL CO., LTD., priority 2020, published 2023)

Assays:
[1] = biological target: Ba/F3 L858R/T790M/C797S EGFR triple mutant cell line (Homo sapiens, UniProt P00533, T790M/C797S/L858R, cells depend on it); assay: Cell proliferation inhibition experiment (CellTiter-Glo), Ba/F3 L858R/T790M/C797S; type: cell-based; conditions: 72 hours, Cell Titer-Glo, read-out: Ba/F3 (L858R/T790M/C797S) IC50
[2] = biological target: T1, L858R/T790M/C797S triple mutant EGFR (Homo sapiens, UniProt P00533, C797S/L858R/T790M); assay: Enzymology experiment in vitro (HTRF/FRET kinase activity), L858R/T790M/C797S triple mutant EGFR; type: biochemical; conditions: HTRF KinEASE-TK, read-out: EGFR (L858R/T790M/C797S) IC50
T1 construct: purchased Signalchem
Summary of the method: (§1)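 Kinase reaction run 40 min at room temperature with peptide and ATP after a 10 min compound–enzyme preincubation. Phosphorylation read as HTRF signal after 1 h with Eu³⁺ antibody, XL665-streptavidin and EDTA (Cisbio KinEASE-TK).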

[3] = test system: EGFR wild-type cell line A431; assay: Cell proliferation inhibition experiment (CellTiter-Glo), A431; type: cell-based; conditions: Homo sapiens, A-431, 72 h, A431 cells, Cell Titer-Glo, read-out: A431 EGFR WT IC50
Summary of the method: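 Luminescent CellTiter-Glo readout, 30 min at room temperature, after 72 h compound exposure at 37° C., 5% CO2 with 0.1% DMSO final. EGFR wild-type A431 cells were seeded at 800 per well and grown 24 h before dosing. IC50 derived from the dose-response.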

[4] = biological target: Ba/F3 De119/T790M/C797S EGFR triple mutant cell line (Homo sapiens, UniProt P00533, T790M/C797S, cells depend on it, form not given); assay: Cell proliferation inhibition experiment (CellTiter-Glo), Ba/F3 De119/T790M/C797S; type: cell-based; conditions: Ba/F3 Del19/T790M/C797S EGFR triple mutant cells, 72 hours, Cell Titer-Glo; read-out: Ba/F3 (Del19/T790M/C797S) IC50
wild-type EGFR = biological target: T2, wild-type EGFR (Homo sapiens, UniProt P00533); assay: Enzymology experiment in vitro (HTRF/FRET kinase activity), wild-type EGFR; type: biochemical; conditions: HTRF KinEASE-TK, read-out: EGFR (WT) IC50
T2 construct: purchased Signalchem
Summary of the method: as §1

Sequence of Ba/F3 De119/T790M/C797S EGFR triple mutant cell line (P00533 with tags, fused parts or gaps DEL746-750/T790M/C797S, form open): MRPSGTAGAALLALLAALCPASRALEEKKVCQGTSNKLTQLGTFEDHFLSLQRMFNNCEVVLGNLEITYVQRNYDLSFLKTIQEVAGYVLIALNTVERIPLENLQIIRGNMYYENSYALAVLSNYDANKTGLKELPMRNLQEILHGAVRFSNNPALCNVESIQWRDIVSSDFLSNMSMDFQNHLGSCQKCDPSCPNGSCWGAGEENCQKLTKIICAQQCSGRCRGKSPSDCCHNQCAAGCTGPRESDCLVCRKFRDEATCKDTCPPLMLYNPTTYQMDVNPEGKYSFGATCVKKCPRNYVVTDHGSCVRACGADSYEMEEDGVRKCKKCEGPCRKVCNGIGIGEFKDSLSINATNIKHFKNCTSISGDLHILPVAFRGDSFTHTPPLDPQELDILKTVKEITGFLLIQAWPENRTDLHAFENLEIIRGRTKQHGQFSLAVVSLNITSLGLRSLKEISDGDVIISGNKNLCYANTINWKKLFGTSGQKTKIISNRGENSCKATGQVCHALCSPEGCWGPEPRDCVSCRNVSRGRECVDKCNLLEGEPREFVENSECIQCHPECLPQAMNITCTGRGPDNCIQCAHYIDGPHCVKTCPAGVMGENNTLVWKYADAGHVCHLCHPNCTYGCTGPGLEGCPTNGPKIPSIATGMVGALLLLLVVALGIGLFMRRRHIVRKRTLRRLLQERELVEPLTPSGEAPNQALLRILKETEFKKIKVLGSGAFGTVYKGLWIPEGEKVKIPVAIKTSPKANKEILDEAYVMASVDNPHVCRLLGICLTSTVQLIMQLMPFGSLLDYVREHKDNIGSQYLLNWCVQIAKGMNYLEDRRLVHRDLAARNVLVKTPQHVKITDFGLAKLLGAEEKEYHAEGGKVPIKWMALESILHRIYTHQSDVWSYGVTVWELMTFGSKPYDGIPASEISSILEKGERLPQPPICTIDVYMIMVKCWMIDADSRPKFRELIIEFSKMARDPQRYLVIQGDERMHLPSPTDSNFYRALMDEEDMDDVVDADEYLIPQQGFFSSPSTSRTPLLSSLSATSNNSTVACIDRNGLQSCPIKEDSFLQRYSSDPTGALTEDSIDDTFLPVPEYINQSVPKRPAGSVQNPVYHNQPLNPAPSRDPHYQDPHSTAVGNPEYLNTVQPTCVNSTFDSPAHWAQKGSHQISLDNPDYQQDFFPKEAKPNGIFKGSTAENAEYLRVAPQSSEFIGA
T2 sequence (P00533 25-1210): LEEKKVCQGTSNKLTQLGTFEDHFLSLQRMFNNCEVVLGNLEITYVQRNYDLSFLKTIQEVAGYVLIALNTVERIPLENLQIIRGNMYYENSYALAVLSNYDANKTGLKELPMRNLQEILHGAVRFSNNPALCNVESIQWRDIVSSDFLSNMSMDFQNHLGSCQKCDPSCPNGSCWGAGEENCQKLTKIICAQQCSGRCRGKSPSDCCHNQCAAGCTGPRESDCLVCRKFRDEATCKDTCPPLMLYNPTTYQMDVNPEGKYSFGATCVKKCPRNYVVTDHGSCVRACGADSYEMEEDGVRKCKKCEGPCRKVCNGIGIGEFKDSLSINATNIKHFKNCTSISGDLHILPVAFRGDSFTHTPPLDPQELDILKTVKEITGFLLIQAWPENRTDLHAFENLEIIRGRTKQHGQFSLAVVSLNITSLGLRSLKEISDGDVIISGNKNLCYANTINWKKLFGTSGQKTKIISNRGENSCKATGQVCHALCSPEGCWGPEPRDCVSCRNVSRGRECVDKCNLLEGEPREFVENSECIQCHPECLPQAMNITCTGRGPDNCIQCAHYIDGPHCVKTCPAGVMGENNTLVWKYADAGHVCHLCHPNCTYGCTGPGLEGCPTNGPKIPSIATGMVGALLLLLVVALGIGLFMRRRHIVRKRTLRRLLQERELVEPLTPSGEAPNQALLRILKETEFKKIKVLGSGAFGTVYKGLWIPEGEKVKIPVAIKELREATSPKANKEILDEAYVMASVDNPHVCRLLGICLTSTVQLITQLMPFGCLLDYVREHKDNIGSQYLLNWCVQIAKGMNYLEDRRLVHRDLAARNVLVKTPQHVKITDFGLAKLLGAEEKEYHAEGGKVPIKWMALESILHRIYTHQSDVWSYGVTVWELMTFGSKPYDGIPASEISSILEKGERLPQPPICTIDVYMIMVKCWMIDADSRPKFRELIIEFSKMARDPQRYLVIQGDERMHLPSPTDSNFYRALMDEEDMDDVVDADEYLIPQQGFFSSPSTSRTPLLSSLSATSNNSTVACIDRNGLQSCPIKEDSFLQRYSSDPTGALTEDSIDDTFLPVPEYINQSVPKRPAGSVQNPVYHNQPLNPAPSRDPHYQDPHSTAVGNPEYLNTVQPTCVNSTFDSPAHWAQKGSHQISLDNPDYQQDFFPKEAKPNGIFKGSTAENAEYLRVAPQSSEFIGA
T1 sequence (P00533 25-1210 T790M/C797S/L858R): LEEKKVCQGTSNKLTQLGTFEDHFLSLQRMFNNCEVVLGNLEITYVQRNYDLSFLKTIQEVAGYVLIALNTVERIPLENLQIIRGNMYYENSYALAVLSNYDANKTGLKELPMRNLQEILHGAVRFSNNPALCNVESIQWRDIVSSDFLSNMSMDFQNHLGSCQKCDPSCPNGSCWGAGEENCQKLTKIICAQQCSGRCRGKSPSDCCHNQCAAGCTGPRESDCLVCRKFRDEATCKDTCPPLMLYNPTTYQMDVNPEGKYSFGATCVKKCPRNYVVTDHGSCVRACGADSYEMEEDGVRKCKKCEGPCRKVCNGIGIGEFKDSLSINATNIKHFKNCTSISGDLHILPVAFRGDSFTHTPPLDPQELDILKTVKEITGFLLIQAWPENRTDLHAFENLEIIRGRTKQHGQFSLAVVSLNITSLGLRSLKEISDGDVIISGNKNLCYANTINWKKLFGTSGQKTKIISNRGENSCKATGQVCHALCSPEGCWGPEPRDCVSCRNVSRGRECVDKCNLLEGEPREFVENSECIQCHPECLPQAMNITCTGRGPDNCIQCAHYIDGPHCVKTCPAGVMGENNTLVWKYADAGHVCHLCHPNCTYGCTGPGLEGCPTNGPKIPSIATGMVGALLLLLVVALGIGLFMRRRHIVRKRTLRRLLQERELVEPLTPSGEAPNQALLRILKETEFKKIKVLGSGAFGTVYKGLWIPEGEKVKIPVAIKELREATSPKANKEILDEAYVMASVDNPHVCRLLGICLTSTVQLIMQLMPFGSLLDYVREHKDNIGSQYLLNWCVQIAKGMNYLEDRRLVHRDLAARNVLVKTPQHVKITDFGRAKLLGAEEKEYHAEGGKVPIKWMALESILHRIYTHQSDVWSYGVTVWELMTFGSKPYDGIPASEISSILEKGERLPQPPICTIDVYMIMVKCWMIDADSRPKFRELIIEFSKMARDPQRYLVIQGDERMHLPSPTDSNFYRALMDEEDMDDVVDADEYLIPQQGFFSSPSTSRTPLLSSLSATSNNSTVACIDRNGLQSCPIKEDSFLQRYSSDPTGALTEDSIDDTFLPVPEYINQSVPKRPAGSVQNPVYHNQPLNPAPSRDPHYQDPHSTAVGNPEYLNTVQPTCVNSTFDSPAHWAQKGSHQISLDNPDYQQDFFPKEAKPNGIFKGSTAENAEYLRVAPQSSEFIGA
Sequence of Ba/F3 L858R/T790M/C797S EGFR triple mutant cell line (P00533 whole entry T790M/C797S/L858R): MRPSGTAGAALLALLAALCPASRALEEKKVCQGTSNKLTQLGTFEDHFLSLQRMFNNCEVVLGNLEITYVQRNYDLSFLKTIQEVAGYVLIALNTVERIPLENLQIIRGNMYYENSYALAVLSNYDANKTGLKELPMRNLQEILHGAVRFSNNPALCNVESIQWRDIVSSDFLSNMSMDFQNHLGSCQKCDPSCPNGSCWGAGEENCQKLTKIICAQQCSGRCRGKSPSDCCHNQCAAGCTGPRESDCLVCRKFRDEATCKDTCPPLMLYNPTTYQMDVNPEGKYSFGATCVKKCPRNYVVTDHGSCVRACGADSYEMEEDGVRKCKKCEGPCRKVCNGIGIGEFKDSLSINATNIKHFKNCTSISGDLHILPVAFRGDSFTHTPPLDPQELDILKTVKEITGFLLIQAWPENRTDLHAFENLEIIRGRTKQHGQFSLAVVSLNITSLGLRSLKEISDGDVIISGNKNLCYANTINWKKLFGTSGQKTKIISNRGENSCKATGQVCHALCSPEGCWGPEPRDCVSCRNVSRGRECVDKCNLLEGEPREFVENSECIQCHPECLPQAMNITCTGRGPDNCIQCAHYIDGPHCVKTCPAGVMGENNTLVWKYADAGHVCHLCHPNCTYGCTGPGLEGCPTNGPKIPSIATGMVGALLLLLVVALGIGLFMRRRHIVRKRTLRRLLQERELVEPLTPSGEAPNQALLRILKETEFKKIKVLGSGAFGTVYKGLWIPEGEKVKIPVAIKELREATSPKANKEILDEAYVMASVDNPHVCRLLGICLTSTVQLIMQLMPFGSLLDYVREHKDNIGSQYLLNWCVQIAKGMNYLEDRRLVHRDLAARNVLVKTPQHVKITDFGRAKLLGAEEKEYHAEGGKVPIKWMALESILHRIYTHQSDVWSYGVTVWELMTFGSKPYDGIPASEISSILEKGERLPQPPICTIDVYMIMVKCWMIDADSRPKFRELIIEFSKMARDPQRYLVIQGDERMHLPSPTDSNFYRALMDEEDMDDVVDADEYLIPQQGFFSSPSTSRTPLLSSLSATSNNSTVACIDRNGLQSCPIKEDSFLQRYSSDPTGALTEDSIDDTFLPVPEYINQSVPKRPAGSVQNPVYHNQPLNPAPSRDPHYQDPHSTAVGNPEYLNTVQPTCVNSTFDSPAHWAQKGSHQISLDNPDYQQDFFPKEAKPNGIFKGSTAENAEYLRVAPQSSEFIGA

GI50 [1] | IC50 [2] | IC50 [3] | GI50 [4] | IC50 (wild-type EGFR) | SMILES
6.53 nM | 0.36 nM | 64.8 nM | 4.13 nM | 1.4 nM | COc1cc(N2CCC(N3CCC(F)CC3)CC2)c(-c2cnn(C)c2)cc1Nc1ncc(Br)c(Nc2ccc3nccnc3c2P(C)(C)=O)n1 [compound 180]
9.67 nM | 0.16 nM | 88.9 nM | 3.52 nM | 3.53 nM | [2H]C([2H])([2H])OCCN1CCN(c2cc(OC)c(Nc3ncc(Br)c(Nc4ccc5nccnc5c4P(C)(C)=O)n3)cc2-c2cnn(C)c2)CC1 [compound 181]
4.43 nM | 0.4 nM | 101 nM | 1.71 nM | 8.49 nM | COc1cc(N2CCOC(COC(C)C)C2)c(-c2cnn(C)c2)cc1Nc1ncc(Br)c(Nc2ccc3nccnc3c2P(C)(C)=O)n1 (stereo not drawn) [compound 182]
27 nM | 1.12 nM | 246 nM | 14.4 nM | 12.2 nM | COc1cc(N2CCC3(CCN(C)CC3)CC2)c(-c2cnn(C)c2)cc1Nc1ncc(Br)c(Nc2ccccc2N(C)S(=O)(=O)C2CC2)n1 [compound 183, N-(2-((5-Bromo-2-((2-methoxy-5-(1-methyl-1H-pyrazol-4-yl)-4-)(9-methyl-3,9-diazaspiro[5.5]undecan-3-yl)phenyl)amino)pyrimidin-4-yl)amino)phenyl-N-methylcyclopropanesulfonamide]
5.67 nM | 0.24 nM | 218 nM | 2.28 nM | 2.23 nM | COc1cc(N2CCN(C3(C)COC3)CC2)c(-c2cnn(C)c2)cc1Nc1ncc(Br)c(Nc2ccc3nccnc3c2P(C)(C)=O)n1 [compound 184]
4.02 nM | 0.36 nM | 127 nM | 1.77 nM | 2.42 nM | COc1cc(N2CCC(N3CC[C@H](OC)[C@H](F)C3)CC2)c(-c2cnn(C)c2)cc1Nc1ncc(Br)c(Nc2ccc3nccnc3c2P(C)(C)=O)n1 [compound 185]
3.47 nM | 0.37 nM | 62 nM | 1.39 nM | 1.19 nM | COc1cc(N2CCC(N3CCN(CC(F)F)CC3)CC2)c(-c2cnn(C)c2)cc1Nc1ncc(Br)c(Nc2ccc3nccnc3c2P(C)(C)=O)n1 [compound 186]
8.73 nM | 0.04 nM | 245 nM | 2.11 nM | 5.73 nM | COc1cc(N2CC[C@H](OC)[C@H](F)C2)c(-c2cnn(C)c2)cc1Nc1ncc(Br)c(Nc2ccc3nccnc3c2P(C)(C)=O)n1 [compound 187]
0.87 nM | 0.43 nM | 56.6 nM | 0.61 nM | 5.62 nM | COc1cc(N2CCC(C)(OC)CC2)c(-c2cnn(C)c2)cc1Nc1ncc(Br)c(Nc2ccc3nccnc3c2P(C)(C)=O)n1 [compound 188]
23.6 nM | 0.16 nM | 128 nM | 9.18 nM | 1.08 nM | COc1cc(N2CCC(N3CCN(C)CC3)C(F)C2)c(-c2cnn(C)c2)cc1Nc1ncc(Br)c(Nc2ccc3nccnc3c2P(C)(C)=O)n1 (stereo not drawn) [compound 189]
8.69 nM | 0.53 nM | 194 nM | 4.16 nM | 4.37 nM | COc1cc(N2CCC(N3CCN(C)CC3)CC2)c(-c2cnn(C)c2)cc1Nc1ncc(Br)c(Nc2ccccc2N(C)S(=O)(=O)C2CC2)n1 [compound 190]
11.4 nM | 0.23 nM | 70 nM | 3.47 nM | 2.44 nM | COc1cc(N2CCN(CCN3CCOCC3)CC2)c(-c2cnn(C)c2)cc1Nc1ncc(Br)c(Nc2ccc3nccnc3c2P(C)(C)=O)n1 [compound 191]
9.83 nM | 0.27 nM | 59.9 nM | 4.48 nM | 0.99 nM | COc1cc(N2CCC(N3CCN(C)C(C)C3)CC2)c(-c2cnn(C)c2)cc1Nc1ncc(Br)c(Nc2ccc3nccnc3c2P(C)(C)=O)n1 (stereo not drawn) [compound 193]
16.4 nM | 0.17 nM | 79.5 nM | 5.56 nM | 2.85 nM | COc1cc(N2CCC3(CC2)CN(C)CCN3C)c(-c2cnn(C)c2)cc1Nc1ncc(Br)c(Nc2ccc3nccnc3c2P(C)(C)=O)n1 [compound 194]
12.5 nM | 2.33 nM | 415 nM | 7.7 nM | 8.52 nM | COc1cc(N2CCC3(CC2)CN(C)CCO3)c(-c2cnn(C)c2)cc1Nc1ncc(Br)c(Nc2cc3c(cc2N(C)S(C)(=O)=O)CC3)n1 [compound 195]
20.8 nM | 0.59 nM | 356 nM | 12.3 nM | 3.35 nM | COc1cc(N2CCC3(CCN(C)CC3)CC2)c(-c2cnn(C)c2)cc1Nc1ncc(Br)c(Nc2cc3c(cc2N(C)S(C)(=O)=O)CC3)n1 [compound 196]
14.3 nM | 0.25 nM | 95.6 nM | 7.7 nM | 0.62 nM | COc1cc(N2CCC(N3CC(C)N(C)C(C)C3)CC2)c(-c2cnn(C)c2)cc1Nc1ncc(Br)c(Nc2ccc3nccnc3c2P(C)(C)=O)n1 (stereo not drawn) [compound 197]
9.49 nM | 0.22 nM | 38 nM | 4.26 nM | 0.62 nM | COc1cc(N2CCC(OCCN(C)C)CC2)c(-c2cnn(C)c2)cc1Nc1ncc(Br)c(Nc2ccc3nccnc3c2P(C)(C)=O)n1 [compound 198]
22 nM | 0.19 nM | 69.6 nM | 7.47 nM | 7.56 nM | CN1CCN(c2noc3c(Nc4ncc(Br)c(Nc5ccc6nccnc6c5P(C)(C)=O)n4)cc(-c4cnn(C)c4)cc23)CC1 [compound 200]
3.75 nM | 0.59 nM | 91.3 nM | 2.93 nM | 3.74 nM | COc1cc(N2CCC3(CC2)CN(C(C)C)CCO3)c(-c2cnn(C)c2)cc1Nc1ncc(Br)c(Nc2ccc3nccnc3c2P(C)(C)=O)n1 [compound 202]
20 nM | 0.47 nM | 351 nM | 10.6 nM | 21.2 nM | COc1cc(N2CCC3(CCOC3)C2)c(-c2cnn(C)c2)cc1Nc1ncc(Br)c(Nc2ccc3nccnc3c2P(C)(C)=O)n1 (stereo not drawn) [compound 203]
11.2 nM | 0.25 nM | 66.9 nM | 5.19 nM | 1.57 nM | COc1cc(N2CCC(N3CC(CF)C3)CC2)c(-c2cnn(C)c2)cc1Nc1ncc(Br)c(Nc2ccc3nccnc3c2P(C)(C)=O)n1 [compound 204]
8.9 nM | 0.35 nM | 116 nM | 3.2 nM | 3.08 nM | COc1cc(N2CCC3CCN(CCF)C3C2)c(-c2cnn(C)c2)cc1Nc1ncc(Br)c(Nc2ccc3nccnc3c2P(C)(C)=O)n1 (stereo not drawn) [compound 205, (6-((5-Bromo-2-((4-(1-(2-fluoroethyl)octahydro-6H-pyrrolo[2,3-c]pyridin-6-yl)-2-methoxy-5-(1-methyl-1H-pyrazol-4-yl)phenyl)amino)pyrimidin-4-yl)amino)quinoxalin-5-yl)dimethylphosphine oxide]
30.2 nM | 0.62 nM | 298 nM | 7.62 nM | 8.46 nM | COc1cc(N2CCC3CCN(CCOC(C)C)C3C2)c(-c2cnn(C)c2)cc1Nc1ncc(Br)c(Nc2ccc3nccnc3c2P(C)(C)=O)n1 (stereo not drawn) [compound 206]
14.6 nM | 0.57 nM | 348 nM | 9.45 nM | 5.79 nM | COc1cc(N2CCC3(CC2)COCCN3C)c(-c2cnn(C)c2)cc1Nc1ncc(Br)c(Nc2cc3c(cc2N(C)S(C)(=O)=O)CC3)n1 [compound 208]
12.6 nM | 0.73 nM | 171 nM | 7.18 nM | 9.74 nM | COc1cc(N2CCC(N3CCN(CCF)CC3)CC2)c(-c2cnn(C)c2)cc1Nc1ncc(Br)c(Nc2ccccc2N(C)S(=O)(=O)C2CC2)n1 [compound 209]
24.8 nM | 0.61 nM | 354 nM | 14.3 nM | 10.9 nM | COc1cc(N2CCC(N3CCN(C)CC3)C(F)C2)c(-c2cnn(C)c2)cc1Nc1ncc(Br)c(Nc2ccccc2N(C)S(=O)(=O)C2CC2)n1 (stereo not drawn) [compound 211]
25.1 nM | 0.33 nM | 179 nM | 9.29 nM | 18.9 nM | COc1cc(N2CCC(N3CCOCC3)CC2)c(-c2cnsc2)cc1Nc1ncc(Br)c(Nc2ccc3nccnc3c2P(C)(C)=O)n1 [compound 212]
4.87 nM | 0.36 nM | 139 nM | 1.47 nM | 1.86 nM | COc1cc(N2CCC(N3CCOCC3)C(F)C2)c(-c2cnn(C)c2)cc1Nc1ncc(Br)c(Nc2ccc3nccnc3c2P(C)(C)=O)n1 (stereo not drawn) [compound 214]
5.58 nM | 0.25 nM | 227 nM | 2.23 nM | 7.3 nM | COc1cc(N2CCC3(CCOCC3)CC2)c(-c2cnn(C)c2)cc1Nc1ncc(Br)c(Nc2ccc3nccnc3c2P(C)(C)=O)n1 [compound 215]
